These results are taken from PubChem BioAssay AID330 (DTP/NCI, 2004).

Where “and” joins values, the source holds several entries; their conditions need not be identical. Equal values may be shown once. Inconclusive results and toxic doses are left out. Square brackets hold non-standard residues; d marks the D form. Peptide text beside a SMILES is read from it. ξ: configuration not given here. ξhCys = NC(CCS)C(=O)O

This test relates to P388 leukemia ip, CD2F1 mice, survival T/C. The test can be described thus: NCI In Vivo Anticancer Drug Screen. Data for tumor model P388 Leukemia (intraperitoneal) in CD2F1 (CDF1) mice. The conditions noted are these: endpoint: median survival time, higher = longer survival. The essentials:
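Mice carrying the transplanted tumor received test compound or vehicle. Survival was recorded in each group, and the value is the treated-group measurement divided by that of the vehicle-treated control group.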

[1] abbreviates: dose: 60.0 mg/kg/injection, schedule: Q01DX005 (ip), vehicle: saline with Tween-80.
Where [2] appears, read: dose: 120.0 mg/kg/injection, schedule: Q01DX005 (ip), vehicle: saline with Tween-80.
Setting [3] is: dose: 240.0 mg/kg/injection, schedule: Q01DX005 (ip), vehicle: saline with Tween-80.

For `CCSCCC(NC(=O)CN)C(=O)O` (configuration not stated) (H-Gly-[ξhCys](Et)-OH), the T/C runs as follows: (dose: 50.0 mg/kg/injection, schedule: Q01DX009 (ip), vehicle: saline) 112 % of control; (dose: 100.0 mg/kg/injection, schedule: Q01DX009 (ip), vehicle: saline) 94 % of control.

In the case of `O=C1CCC(Cc2ccc(Br)cc2)C(=O)N1` (configuration not stated), the T/C under setting [1] was 104 % of control, the T/C under setting [2] is 98 % of control and the T/C under setting [3] was 98 % of control.

`O=C1C=C2CCC3=CC(=O)C(=CC3=O)CCC(=C1)C2=O`: the T/C by setting is: (dose: 100.0 mg/kg/injection, schedule: Q04DX002 (ip), vehicle: Klucel (hydroxypropylcellulose) (HPC)) 97 % of control; (dose: 200.0 mg/kg/injection, schedule: Q04DX002 (ip), vehicle: Klucel (hydroxypropylcellulose) (HPC)) 97 % of control.

As for `O=C1CSC(c2ccc(F)cc2F)N1c1nncs1` (configuration not stated), the T/C under setting [1] was 92 % of control and the T/C under setting [2] is 91 % of control.

Turning to `CCSC(CCC(NC(C)=O)C(=O)O)SCC` (configuration not stated), the T/C (dose: 50.0 mg/kg/injection, schedule: Q01DX005 (ip), vehicle: Klucel (hydroxypropylcellulose) (HPC)) was 98 % of control; the T/C (dose: 100.0 mg/kg/injection, schedule: Q01DX005 (ip), vehicle: Klucel (hydroxypropylcellulose) (HPC)) was 99 % of control; the T/C (dose: 200.0 mg/kg/injection, schedule: Q01DX005 (ip), vehicle: Klucel (hydroxypropylcellulose) (HPC)) was 91 % of control.

Take `O=NN(CCCl)C(=O)Oc1ccc(OC(=O)N(CCCl)N=O)cc1`: the T/C is 116 % of control (dose: 6.25 mg/kg/injection, schedule: Q01DX001 (ip), vehicle: Klucel (hydroxypropylcellulose) (HPC)) and 119 % of control (dose: 12.5 mg/kg/injection, schedule: Q01DX001 (ip), vehicle: Klucel (hydroxypropylcellulose) (HPC)).

Consider `COC(=O)c1[nH]c(=O)c(C#N)c(C(=O)OC)c1-c1ccccn1`, for which the T/C by setting is: under setting [1], 93 % of control; under setting [2], 92 % of control; under setting [3], 92 % of control.

`CSc1nc(N)c(NS(=O)(=O)c2cccc([N+](=O)[O-])c2)c(=O)[nH]1`: the T/C (dose: 60.0 mg/kg/injection, schedule: Q01DX005 (ip), vehicle: Klucel (hydroxypropylcellulose) (HPC)) is 92 % of control; the T/C (dose: 120.0 mg/kg/injection, schedule: Q01DX005 (ip), vehicle: Klucel (hydroxypropylcellulose) (HPC)) is 94 % of control; the T/C (dose: 240.0 mg/kg/injection, schedule: Q01DX005 (ip), vehicle: Klucel (hydroxypropylcellulose) (HPC)) is 88 % of control.

Consider `COC(=O)C(=O)C1(c2ccccc2)C(=O)C(c2ccccc2)=CC1O` (configuration not stated), for which the T/C is 104 % of control (dose: 60.0 mg/kg/injection, schedule: Q01DX005 (ip), vehicle: saline + Tween-80 + alcohol); 101 % of control (dose: 120.0 mg/kg/injection, schedule: Q01DX005 (ip), vehicle: saline + Tween-80 + alcohol); 100 % of control (dose: 240.0 mg/kg/injection, schedule: Q01DX005 (ip), vehicle: saline + Tween-80 + alcohol).

For `Cc1ccc(/C=C/C(=O)C(C)CN(C)C)cc1C` (configuration not stated), the T/C is 106 % of control (dose: 50.0 mg/kg/injection, schedule: Q01DX005 (ip), vehicle: saline) and 109 % of control (dose: 100.0 mg/kg/injection, schedule: Q01DX005 (ip), vehicle: saline).

For `CCCCCCCOc1cccc(OCCCC[N+]2(CC)CCCCC2)c1`, the T/C was 97 % of control (dose: 1.56 mg/kg/injection, schedule: Q01DX009 (ip), vehicle: saline); 100 % of control (dose: 3.12 mg/kg/injection, schedule: Q01DX009 (ip), vehicle: saline); 100 % of control (dose: 6.25 mg/kg/injection, schedule: Q01DX009 (ip), vehicle: saline).

For the compound `CSC#CC(Sc1c(Cl)c(Cl)c(Cl)c(Cl)c1Cl)=C(Sc1c(Cl)c(Cl)c(Cl)c(Cl)c1Cl)Sc1c(Cl)c(Cl)c(Cl)c(Cl)c1Cl`, the T/C runs as follows: (dose: 50.0 mg/kg/injection, schedule: Q01DX009 (ip), vehicle: saline with Tween-80) 99 % of control; (dose: 100.0 mg/kg/injection, schedule: Q01DX009 (ip), vehicle: saline with Tween-80) 93 % of control; (dose: 200.0 mg/kg/injection, schedule: Q01DX009 (ip), vehicle: saline with Tween-80) 92 % of control.

For the compound `COC(=O)CCCCC(=O)OC`, the T/C was 109 % of control (dose: 100.0 mg/kg/injection, schedule: Q04DX003 (ip), vehicle: saline); 109 % of control (dose: 200.0 mg/kg/injection, schedule: Q04DX003 (ip), vehicle: saline); 109 % of control (dose: 400.0 mg/kg/injection, schedule: Q04DX003 (ip), vehicle: saline).

For the compound `CCC1C(=O)OCCOCCOCCOCCOCCOC1=O`, the T/C was 100 % of control (dose: 50.0 mg/kg/injection, schedule: Q01DX009 (ip), vehicle: Klucel (hydroxypropylcellulose) (HPC)); 107 % of control (dose: 100.0 mg/kg/injection, schedule: Q01DX009 (ip), vehicle: Klucel (hydroxypropylcellulose) (HPC)); 99 % of control (dose: 200.0 mg/kg/injection, schedule: Q01DX009 (ip), vehicle: Klucel (hydroxypropylcellulose) (HPC)).

For `O=c1n(-c2ccccc2)c(=O)n2n1C1C3C4CCC1C4(Cl)C32` (configuration not stated), the T/C was 100 % of control (dose: 100.0 mg/kg/injection, schedule: Q01DX001 (ip), vehicle: saline with Tween-80); 94 % of control (dose: 200.0 mg/kg/injection, schedule: Q01DX001 (ip), vehicle: saline with Tween-80); 91 % of control (dose: 400.0 mg/kg/injection, schedule: Q01DX001 (ip), vehicle: saline with Tween-80).

On to `COC1=C(N)C(=O)c2nc(-c3nc(C=O)c(C)c(-c4ccc(OC)c(OC)c4O)c3N)ccc2C1=O`, for which the T/C is 116 % of control (dose: 0.18 mg/kg/injection, schedule: Q01DX009 (ip), vehicle: DMSO); 115 % of control (dose: 0.3 mg/kg/injection, schedule: Q01DX009 (ip), vehicle: DMSO); 115 % of control (dose: 0.3 mg/kg/injection, schedule: Q01DX009 (ip), vehicle: other); 104 % of control (dose: 0.33 mg/kg/injection, schedule: Q01DX009 (ip), vehicle: DMSO); 124 % of control (dose: 0.55 mg/kg/injection, schedule: Q01DX009 (ip), vehicle: DMSO); 124 % of control (dose: 0.55 mg/kg/injection, schedule: Q01DX009 (ip), vehicle: other). Also, the T/C (dose: 0.62 mg/kg/injection, schedule: Q01DX009 (ip), vehicle: other) is 120 % of control; the T/C (dose: 0.63 mg/kg/injection, schedule: Q01DX009 (ip), vehicle: DMSO) was 110 % of control; the T/C (dose: 0.93 mg/kg/injection, schedule: Q01DX009 (ip), vehicle: DMSO) is 121 % of control; the T/C (dose: 1.05 mg/kg/injection, schedule: Q01DX009 (ip), vehicle: DMSO) is 124 % of control; the T/C (dose: 1.05 mg/kg/injection, schedule: Q01DX009 (ip), vehicle: other) was 124 % of control; the T/C (dose: 1.24 mg/kg/injection, schedule: Q01DX009 (ip), vehicle: other) was 110 % of control. In addition, the T/C runs as follows: (dose: 1.53 mg/kg/injection, schedule: Q01DX009 (ip), vehicle: DMSO) 118 % of control; (dose: 1.55 mg/kg/injection, schedule: Q01DX009 (ip), vehicle: DMSO) 124 % of control; (dose: 1.55 mg/kg/injection, schedule: Q01DX009 (ip), vehicle: other) 99 % of control and 100 % of control and 124 % of control; (dose: 2.05 mg/kg/injection, schedule: Q01DX009 (ip), vehicle: DMSO) 110 % of control; (dose: 2.05 mg/kg/injection, schedule: Q01DX009 (ip), vehicle: other) 110 % of control; (dose: 3.03 mg/kg/injection, schedule: Q01DX009 (ip), vehicle: DMSO) 84 % of control. For the same compound, the T/C runs as follows: (dose: 3.1 mg/kg/injection, schedule: Q01DX009 (ip), vehicle: other) 121 % of control; (dose: 4.96 mg/kg/injection, schedule: Q01DX009 (ip), vehicle: other) 92 % of control and 93 % of control; (dose: 6.03 mg/kg/injection, schedule: Q01DX009 (ip), vehicle: DMSO) 94 % of control; (dose: 6.05 mg/kg/injection, schedule: Q01DX009 (ip), vehicle: DMSO) 124 % of control; (dose: 6.05 mg/kg/injection, schedule: Q01DX009 (ip), vehicle: other) 124 % of control; (dose: 6.2 mg/kg/injection, schedule: Q01DX009 (ip), vehicle: other) 110 % of control. Also, for the setting “dose: 12.4 mg/kg/injection, schedule: Q01DX009 (ip), vehicle: other”, the T/C is 56 % of control.

On to `[Cl][Pt+2][Cl].[NH-]c1cccc(F)c1.[NH-]c1cccc(F)c1`, for which the T/C was 158 % of control (dose: 3.12 mg/kg/injection, schedule: Q01DX009 (ip), vehicle: Klucel (hydroxypropylcellulose) (HPC)) and 155 % of control (dose: 6.25 mg/kg/injection, schedule: Q01DX009 (ip), vehicle: Klucel (hydroxypropylcellulose) (HPC)).
